Consider three compounds from ChEMBL document CHEMBL6074678, “Selectively Antagonizing the NOD1-Mediated Inflammatory Signaling Pathway Mitigates the Gastric Inflammation Induced by Helicobacter pylori Infection” (J Med Chem, 2024).

Active and inactive are the calls of the source. The rule behind the calls is not given here.

Data set [1] has as its target T1, Nucleotide-binding oligomerization domain-containing protein 1 (Mus musculus) (UniProt Q8BHB0).
T1 sequence (whole entry): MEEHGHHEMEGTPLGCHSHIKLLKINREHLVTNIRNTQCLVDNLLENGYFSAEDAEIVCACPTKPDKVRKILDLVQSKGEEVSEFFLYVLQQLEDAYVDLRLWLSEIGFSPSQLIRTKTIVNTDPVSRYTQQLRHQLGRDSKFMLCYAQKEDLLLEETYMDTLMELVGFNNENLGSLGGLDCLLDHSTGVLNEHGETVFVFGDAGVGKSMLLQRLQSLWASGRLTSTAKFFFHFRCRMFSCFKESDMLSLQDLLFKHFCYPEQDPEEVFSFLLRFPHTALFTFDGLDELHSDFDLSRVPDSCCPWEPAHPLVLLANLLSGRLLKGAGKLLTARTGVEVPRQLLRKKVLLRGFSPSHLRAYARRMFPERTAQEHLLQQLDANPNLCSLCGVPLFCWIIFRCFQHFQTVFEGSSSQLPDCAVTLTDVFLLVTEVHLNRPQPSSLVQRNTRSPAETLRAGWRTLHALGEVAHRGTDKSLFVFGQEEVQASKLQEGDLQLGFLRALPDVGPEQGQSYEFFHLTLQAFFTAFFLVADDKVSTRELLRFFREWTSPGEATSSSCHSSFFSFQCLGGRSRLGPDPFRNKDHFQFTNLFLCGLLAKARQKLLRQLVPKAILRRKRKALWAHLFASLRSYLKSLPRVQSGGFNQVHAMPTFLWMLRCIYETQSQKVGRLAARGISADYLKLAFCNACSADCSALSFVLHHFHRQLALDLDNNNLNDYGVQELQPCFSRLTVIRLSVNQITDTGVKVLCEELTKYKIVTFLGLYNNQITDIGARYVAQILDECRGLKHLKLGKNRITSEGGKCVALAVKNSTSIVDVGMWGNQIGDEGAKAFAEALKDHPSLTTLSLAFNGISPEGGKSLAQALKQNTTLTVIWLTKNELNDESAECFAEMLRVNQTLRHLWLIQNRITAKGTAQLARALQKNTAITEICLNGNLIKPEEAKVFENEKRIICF
Description: Antagonist activity at mouse NOD1 expressed in HEK-Blue cells assessed as decrease in SEAP secretion at 1 uM incubated for 3 hrs followed by C12-iE-DAP stimulation for 20 hrs by spectrophotometry relative to control. The settings on record: HEK-Blue mNOD1, filed as antagonist, time 23.0 hrs. The format is cell-based.

A short description of data set [2]: Cytotoxicity against HEK-Blue hNOD1 cells by SRB assay. The format is toxicity, cell-based. Particulars: human. A general note: The SRB assay estimates cell density from bound dye.
The nature of data set [3]: Cytotoxicity against HEK-Blue mNOD1 cells by SRB assay. The format is toxicity, cell-based. The settings on record: human.
Data set [4] deals with T2, Nucleotide-binding oligomerization domain-containing protein 1 (Homo sapiens) (UniProt Q9Y239).
T2 sequence (whole entry): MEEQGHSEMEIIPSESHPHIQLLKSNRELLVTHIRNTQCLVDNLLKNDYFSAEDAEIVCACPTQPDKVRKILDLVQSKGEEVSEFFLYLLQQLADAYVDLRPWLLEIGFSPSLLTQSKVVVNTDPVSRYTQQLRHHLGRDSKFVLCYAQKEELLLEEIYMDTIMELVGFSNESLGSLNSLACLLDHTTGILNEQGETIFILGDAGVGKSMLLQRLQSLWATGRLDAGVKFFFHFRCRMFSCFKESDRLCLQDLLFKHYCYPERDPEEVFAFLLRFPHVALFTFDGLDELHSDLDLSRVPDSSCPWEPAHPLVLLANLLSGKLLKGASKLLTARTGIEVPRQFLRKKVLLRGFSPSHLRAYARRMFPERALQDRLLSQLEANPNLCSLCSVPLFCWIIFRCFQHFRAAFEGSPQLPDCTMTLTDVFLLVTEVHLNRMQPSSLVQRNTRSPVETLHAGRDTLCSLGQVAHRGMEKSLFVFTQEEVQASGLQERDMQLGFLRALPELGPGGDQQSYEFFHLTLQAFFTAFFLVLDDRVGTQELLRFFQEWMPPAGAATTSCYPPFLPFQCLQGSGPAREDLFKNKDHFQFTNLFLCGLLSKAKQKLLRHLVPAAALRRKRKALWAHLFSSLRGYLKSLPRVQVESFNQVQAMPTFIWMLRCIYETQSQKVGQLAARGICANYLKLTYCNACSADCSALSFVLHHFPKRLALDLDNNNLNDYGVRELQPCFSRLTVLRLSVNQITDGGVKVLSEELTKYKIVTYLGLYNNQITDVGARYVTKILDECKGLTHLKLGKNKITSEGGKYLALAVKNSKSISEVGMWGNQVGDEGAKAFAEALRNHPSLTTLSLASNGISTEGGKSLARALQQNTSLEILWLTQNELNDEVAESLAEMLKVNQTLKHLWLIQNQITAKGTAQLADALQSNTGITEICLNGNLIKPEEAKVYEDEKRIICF
The data set is described as follows: Thermal stabilization of NOD1 (unknown origin) transfected in HEK293 cells at 0.1 to 5 uM incubated for 1 hr heated at higher temperature by CETSA. The format is cell-based. Particulars: dose 0.1-5 µM.

The subject of data set [5] is THP-1. Description: Anti-inflammatory activity in human THP-1 cells assessed as decrease in IL-6 mRNA level at 0.1 uM pretreated for 1 hr followed by C12-iE-DAP stimulation for 2 hrs by RT-qPCR analysis relative to control. The format is functional. Also on record: scale not given: the % may be the effect or the level left. Particulars: time 3 hrs. Background: Quantitative PCR measures a nucleic acid by following its amplification.

For data set [6], the system named is THP-1. Description: Anti-inflammatory activity in human THP-1 cells assessed as decrease in TNF-alpha mRNA level at 0.1 uM pretreated for 1 hr followed by C12-iE-DAP stimulation for 2 hrs by RT-qPCR analysis relative to control. The settings on record: time 3 hrs. It counts as functional. Also on record: scale not given: the % may be the effect or the level left.

Data set [7] has as its system THP-1. The data set is described as follows: Anti-inflammatory activity in human THP-1 cells assessed as decrease in IL-6 mRNA level at 5 uM pretreated for 1 hr followed by infection with Helicobacter pylori for 2 hrs by RT-qPCR analysis relative to control. The format is functional. Details: scale not given: the % may be the effect or the level left. The settings on record: time 3 hrs.

The next data set has as its system BMDM. Description: Anti-inflammatory activity in mouse BMDM cells assessed as decrease in CXCL8 mRNA level at 1 to 5 uM pretreated for 1 hr followed by infection with Helicobacter pylori for 2 hrs by RT-qPCR analysis. The settings on record: dose 1-5 µM, time 3.0 hrs. The format is functional, cell-based.
A short description of data set [8]: Half life in C57BL/6 mouse at 2 mg/kg, iv by LC-MS/MS analysis. The format is ADME, organism-based. Particulars: in vivo.
Data set [9] is described as follows: Cmax in C57BL/6 mouse at 2 mg/kg, iv by LC-MS/MS analysis. It counts as ADME, organism-based. Particulars: in vivo.
Data set [10] can be described thus: Volume of distribution at steady state in C57BL/6 mouse at 2 mg/kg, iv by LC-MS/MS analysis. It counts as ADME, organism-based. The settings on record: in vivo, read-out: Vdss.
A short description of data set [11]: Cmax in C57BL/6 mouse at 20 mg/kg, po by LC-MS/MS analysis. The format is ADME, organism-based. The settings on record: in vivo.
The nature of data set [12]: MRT (infinity) in C57BL/6 mouse at 20 mg/kg, po by LC-MS/MS analysis. The format is ADME, organism-based. Particulars: in vivo.
The next data set relates to Mus musculus. The data set is described as follows: Anti-inflammatory activity in C57BL/6 mouse assessed as inhibition in serum keratinocyte chemoattractant level at 12.5 to 50 mg/kg, po pretreated with compound for 15 mins followed by C12-iE-DAP administration measured after 2 hrs by ELISA relative to control. The format is functional. The settings on record: dose 12.5-50 mg/kg, time 135 min, 2.25 h. (In general: ELISA stands for enzyme-linked immunosorbent assay.)

As usually defined, the inhibition is the drop in the measured response relative to a control, in per cent. On to `CS(=O)(=O)c1ccc2nc(Cl)n(-c3ccc(Cl)c(NS(=O)(=O)c4ccc5ncsc5c4)c3)c(=O)c2c1`, for which, in data set [1], the inhibition was 87.2%.

Turning to `N#Cc1ccc2nc(Cl)n(-c3ccc(Cl)c(NS(=O)(=O)c4c(F)cccc4F)c3)c(=O)c2c1`, the inhibition in [1] was 73.6%.

The Cmax is the peak of the concentration-time curve. As usually defined, the MRT inf is the average time that molecules of a dose stay in the body. As for `CS(=O)(=O)c1ccc2nc(Cl)n(-c3ccc(Cl)c(NS(=O)(=O)c4c(F)cccc4F)c3)c(=O)c2c1`, the inhibition in data set [1] was determined as 80.8%. The Activity result in data set [2] was “Non-toxic”; in [3], “Non-toxic”; in the data set with THP-1 [5], about 100%; with THP-1 [6], about 100%; in the data set with THP-1 [7], 100%. The outcome (in data set [4]; with BMDM) was Active. Moreover, the t1/2 in data set [8] stood at 3.9 min. Besides, the highest concentration (Cmax) in [9] stood at 234 ng/mL; in [11], 44.6 ng/mL. Further, the Vd in data set [10] came to 1.33 L/kg. Also, the MRT inf in [12] came to 3.22 h. Also, the “inhibition (INH)” value with Mus musculus is about 77%.
